Assays:
[1] = 1H-MRS of the hippocampus (3T, PRESS), metabolite ratios to administered uridine; format: in vivo; conditions: brain cytidine-containing metabolites (CDP choline, cytidine, CMP, CDP, CTP, dCMP, dCDP, dCTP) as ratio of administered uridine, left and right hippocampus
Protocol: MRI and ^1H-MRS are performed on a 3T scanner. Anatomical MR images are obtained in the coronal plane using a 3D magnetization-prepared rapid gradient echo (MPRAGE) sequence. The sequence is acquired with a field of view of 16 cm, 32 slices with a 3-mm slice thickness, 256×256 matrix size 600-msec inversion time, repetition time (TR) of 8 msec, echo time (TE) of 3 msec, a bandwidth of 32 kHz, and 1 excitation. These images are used to select graphically the left and right hippocampus for solvent suppressed ^1H-MRS. Single-voxel ^1H-MRS of the hippocampus is performed using point-resolved spectroscopy (PRESS). […]
Analysis is performed on the main metabolites detected by MRS, that is, CDP choline, cytidine, cytidine 5′-monophosphate (CMP), cytidine 5′-diphosphate (CDP), cytidine 5′-triphosphate (CTP), deoxycytidine 5′-monophosphate (dCMP) , deoxycytidine 5′-diphosphate (dCDP), deoxycytidine 5′-triphosphate (dCTP), all expressed as a ratio of the administered uridine (Ur). When modeling the overall correlation between the administered uridine or uridine source and metabolite ratios, the measurements of metabolite ratios from the hippocampus on both sides of the brain of each subject analyzed by using repeated measures, with a compound symmetry covariance structure, to account for the within subject correlation.

[2] = Localized in vivo 1H MRS of parietal white matter and occipital gray matter (1.5T) for cytidine levels; conditions: brain cytidine-containing metabolites, brain water as internal reference
Protocol: All MRI scans and localized in vivo ^1H MRS procedures are performed on a system equipped with shielded gradients (GE 1.5T Signa; General Electric Medical Systems; Milwaukee, Wis.) from 9 PM to midnight. Spectroscopy is performed following a routine brain MRI analysis, and the T2-weighted images are used for localization of an area of interest. […]
The major metabolites detectable in ^1H MRS are CDP choline, cytidine, cytidine 5′-monophosphate (CMP), cytidine 5′-diphosphate (CDP), cytidine 5′-triphosphate (CTP), deoxycytidine 5′-monophosphate (dCMP), deoxycytidine 5′-diphosphate (dCDP), deoxycytidine 5′-triphosphate (dCTP). […] The areas under the peaks is measured by Lorenzian line-shape fitting. The absolute concentrations of CDP choline, cytidine, cytidine 5′-monophosphate (CMP), cytidine 5′-diphosphate (CDP), cytidine 5′-triphosphate (CTP), deoxycytidine 5′-monophosphate (dCMP), deoxycytidine 5′-diphosphate (dCDP), deoxycytidine 5′-triphosphate (dCTP) is calculated from the processed spectrum using the brain water as an internal reference. All concentrations are expressed as millimoles per weight of uridine taken. The reference brain water signals used is fixed in the PWM and in the OGM, as calculated.

[3] = Localized 13C MRS measurement of in vivo 13C cytidine in brain (9.4 T); conditions: in vivo 13C brain cytidine content, external reference method
Protocol: All in vivo MRS studies are performed in a horizontal 9.4-T/31-cm magnet (Magnex Scientific, UK) with an 11-cm-diameter gradient coil capable of switching to 300 mT/m in 500 μs, interfaced with an INOVA console (Varian Inc., Calif., USA). A quadrature ^1H radiofrequency (RF) 14-mm-diameter coil and a linear polarized, three-turn 11-mm-diameter ^13C RF coil are used as the transceiver. A sphere containing 99% ^13C-enriched glucose (Glu) is located at the center of the ^13C coil as an external reference, and the coil is placed on the subject's head. Fast Automatic Shimming Technique by Mapping Along Projections (FASTMAP) shimming with echo-planar imaging (EPI) readout is applied to adjust B0 field homogeneity in a initially nominal ˜440 μL volume of interest (VOI). The Single-shot Inversion Recovery based Non-Echo (SIRENE) sequence is applied for 3D localization with optimized outer volume suppression to ensure elimination of signals from noncerebral tissue, and bilevel WALTZ-16 RF pulses are applied at the water frequency for generation of a nuclear Overhauser effect (NOE) and for decoupling during acquisition.
Twelve 64-scan localized ^13C MR spectra (repetition time (TR)=1 s) acquired and are summed, apodized by 20-Hz exponential line-broadening, zero-filled, and Fourier transformed. […] In vivo ^13C brain cytidine content ([^13C-Cyt]invivo) is calculated.

Measured: increase in metabolite ratio as a function of administered uridine or uridine source

O=c1ccn([C@@H]2O[C@H](CO)[C@@H](O)[C@H]2O)c(=O)[nH]1 [uridine]
direct correlation: all assays above
